Laboratory results as given in PubChem BioAssay AID328 (DTP/NCI, 2004).
Inconclusive results and toxic doses are left out.

Tested on: BDF1 mice, P388 leukemia ip, median survival T/C
Experiment: NCI In Vivo Anticancer Drug Screen. Data for tumor model P388 Leukemia (intraperitoneal) in B6D2F1 (BDF1) mice
Settings: endpoint: median survival time, higher = longer survival
In short: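 Reported as T/C, where T is the survival measurement in dosed animals and C the same measurement in vehicle controls.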

[1] = dose: 100.0 mg/kg/injection, schedule: Q01DX009 (ip), vehicle: saline
[2] = dose: 100.0 mg/kg/injection, schedule: Q04DX003 (ip), vehicle: saline
[3] = dose: 100.0 mg/kg/injection, schedule: Q04DX003 (ip), vehicle: saline with Tween-80
[4] = dose: 200.0 mg/kg/injection, schedule: Q04DX003 (ip), vehicle: saline with Tween-80
[5] = dose: 400.0 mg/kg/injection, schedule: Q04DX003 (ip), vehicle: saline with Tween-80
[6] = dose: 200.0 mg/kg/injection, schedule: Q01DX009 (ip), vehicle: saline
[7] = dose: 200.0 mg/kg/injection, schedule: Q04DX003 (ip), vehicle: saline
[8] = dose: 400.0 mg/kg/injection, schedule: Q01DX009 (ip), vehicle: saline
[9] = dose: 400.0 mg/kg/injection, schedule: Q04DX003 (ip), vehicle: saline

C=CCOP(OCC=C)OCC=C
T/C (dose: 25.0 mg/kg/injection, schedule: Q01DX009 (ip), vehicle: saline): 90 % of control | T/C (dose: 25.0 mg/kg/injection, schedule: Q04DX003 (ip), vehicle: saline): 95 % of control | T/C (dose: 50.0 mg/kg/injection, schedule: Q01DX009 (ip), vehicle: saline): 90 % of control | T/C [1]: 104 % of control | T/C [2]: 100 % of control

O=[N+]([O-])c1cccc2c1CCCC2
T/C [3]: 110 % of control | T/C [4]: 110 % of control | T/C [5]: 120 % of control

CSc1c(C)[nH]c2c(C)cccc12
T/C (dose: 50.0 mg/kg/injection, schedule: Q04DX002 (ip), vehicle: saline with Tween-80): 100 % of control | T/C (dose: 100.0 mg/kg/injection, schedule: Q04DX002 (ip), vehicle: saline with Tween-80): 100 % of control | T/C (dose: 200.0 mg/kg/injection, schedule: Q04DX002 (ip), vehicle: saline with Tween-80): 105 % of control

COc1cc(Cc2cc(OC)c(O)c(OC)c2)cc(OC)c1O
T/C (dose: 100.0 mg/kg/injection, schedule: Q04DX003 (ip), vehicle: Klucel (hydroxypropylcellulose) (HPC)): 95 % of control | T/C (dose: 200.0 mg/kg/injection, schedule: Q04DX003 (ip), vehicle: Klucel (hydroxypropylcellulose) (HPC)): 100 % of control | T/C (dose: 400.0 mg/kg/injection, schedule: Q04DX003 (ip), vehicle: Klucel (hydroxypropylcellulose) (HPC)): 100 % of control

NC(=O)C(CC(=O)OCc1ccccc1)NC(=O)OCc1ccccc1 (stereo unspecified)
T/C [3]: 100 % of control | T/C [4]: 95 % of control | T/C [5]: 104 % of control

COc1ccc2c(c1OC)CN(C)CCc1cc3c(cc1C(=O)C2)OCO3
T/C (dose: 18.75 mg/kg/injection, schedule: Q01DX009 (ip), vehicle: saline with Tween-80): 95 % of control | T/C (dose: 37.5 mg/kg/injection, schedule: Q01DX009 (ip), vehicle: saline with Tween-80): 95 % of control

O=C(CNC(c1ccccc1)(c1ccccc1)c1ccccc1)OC(c1ccccc1)c1ccccc1
T/C [3]: 104 % of control | T/C [4]: 104 % of control | T/C [5]: 100 % of control

CCOC(=O)CSC(=S)SCC(=O)OCC
T/C [1]: 100 % of control | T/C [2]: 90 % of control | T/C [6]: 105 % of control | T/C [7]: 100 % of control | T/C [8]: 100 % of control | T/C [9]: 100 % of control

Cc1noc2nccnc12
T/C (dose: 25.0 mg/kg/injection, schedule: Q01DX009 (ip), vehicle: saline with Tween-80): 95 % of control | T/C (dose: 50.0 mg/kg/injection, schedule: Q01DX009 (ip), vehicle: saline with Tween-80): 95 % of control

O=S(=O)(O)c1ccc(Br)cc1
T/C [1]: 92 % of control | T/C [2]: 115 % of control | T/C [6]: 107 % of control | T/C [7]: 110 % of control | T/C [8]: 100 % of control | T/C [9]: 115 % of control

COc1cc(/C=C/C(=O)O)ccc1OC(C)=O
T/C (dose: 100.0 mg/kg/injection, schedule: Q01DX001 (ip), vehicle: saline): 100 % of control | T/C (dose: 200.0 mg/kg/injection, schedule: Q01DX001 (ip), vehicle: saline): 100 % of control | T/C (dose: 400.0 mg/kg/injection, schedule: Q01DX001 (ip), vehicle: saline): 100 % of control

Clc1ccc(-c2nc3ccccc3cc2N2CCCCC2)cc1
T/C (dose: 100.0 mg/kg/injection, schedule: Q01DX001 (ip), vehicle: other): 110 % of control | T/C (dose: 200.0 mg/kg/injection, schedule: Q01DX001 (ip), vehicle: other): 105 % of control | T/C (dose: 400.0 mg/kg/injection, schedule: Q01DX001 (ip), vehicle: other): 105 % of control

S=C(Nc1ccccc1)N(C1CCCCC1)C1CCCCC1
T/C (dose: 100.0 mg/kg/injection, schedule: Q01DX001 (ip), vehicle: saline with Tween-80): 100 % of control | T/C (dose: 200.0 mg/kg/injection, schedule: Q01DX001 (ip), vehicle: saline with Tween-80): 103 % of control | T/C (dose: 200.0 mg/kg/injection, schedule: Q01DX009 (ip), vehicle: saline with Tween-80): 155 % of control | T/C (dose: 400.0 mg/kg/injection, schedule: Q01DX001 (ip), vehicle: saline with Tween-80): 103 % of control
